Data from PubChem BioAssay AID1845195 (Molecular Pharmacology Branch, DTP, NCI, 2023).

System: 156681-154-R-J1 tumor spheroid viability
Experiment: Anticancer human tumor 156681-154-R-J1 patient-derived melanoma cell line growth inhibition
Settings: spheroids with HUVEC and MSC; for IC50: curve of first compound; for viability, T/C: stronger effect = lower value
How it was run: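 Complex spheroids of malignant cells with endothelial cells and mesenchymal stem cells; agents alone or combined, from near clinical Cmax (or 10 microM if unknown) down in half-log steps, 0.25% DMSO final.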

[1] = second compound 1 µM, first compound 0.00949 µM
[2] = second compound 1 µM, first compound 0.03 µM
[3] = second compound 1 µM, first compound 0.0949 µM
[4] = second compound 1 µM, first compound 0.3 µM
[5] = second compound 1 µM, first compound 0.949 µM
[6] = second compound 1 µM, first compound 3 µM
[7] = second compound 3.16 µM, first compound 0.00949 µM
[8] = second compound 3.16 µM, first compound 0.03 µM
[9] = second compound 3.16 µM, first compound 0.0949 µM
[10] = second compound 3.16 µM, first compound 0.3 µM
[11] = second compound 3.16 µM, first compound 0.949 µM
[12] = second compound 3.16 µM, first compound 3 µM
[13] = second compound 10 µM, first compound 0.00949 µM
[14] = second compound 10 µM, first compound 0.03 µM
[15] = second compound 10 µM, first compound 0.0949 µM
[16] = second compound 10 µM, first compound 0.3 µM
[17] = second compound 10 µM, first compound 0.949 µM
[18] = second compound 10 µM, first compound 3 µM
[19] = second compound 31.6 µM, first compound 0.00949 µM
[20] = second compound 31.6 µM, first compound 0.03 µM
[21] = second compound 31.6 µM, first compound 0.0949 µM
[22] = second compound 31.6 µM, first compound 0.3 µM
[23] = second compound 31.6 µM, first compound 0.949 µM
[24] = second compound 31.6 µM, first compound 3 µM
[25] = second compound 100 µM, first compound 0.00949 µM
[26] = second compound 100 µM, first compound 0.03 µM
[27] = second compound 100 µM, first compound 0.0949 µM
[28] = second compound 100 µM, first compound 0.3 µM
[29] = second compound 100 µM, first compound 0.949 µM
[30] = second compound 100 µM, first compound 3 µM
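Further: spheroids exposed to compounds for 7 days before readout.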
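Wherever viability, T/C is given: percent of vehicle control viability where 100% = DMSO-treated spheroids.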

SMILES | IC50 (second compound 1 µM) [nM] | IC50 (second compound 3.16 µM) [nM] | IC50 (second compound 10 µM) [nM] | IC50 (second compound 31.6 µM) [nM] | IC50 (second compound 100 µM) [nM] | viability, T/C [3] [%] | viability, T/C [4] [%] | viability, T/C [5] [%] | viability, T/C [6] [%] | viability, T/C [9] [%] | viability, T/C [10] [%] | viability, T/C [11] [%] | viability, T/C [12] [%] | viability, T/C [15] [%] | viability, T/C [16] [%] | viability, T/C [17] [%] | viability, T/C [18] [%] | viability, T/C [21] [%] | viability, T/C [22] [%] | viability, T/C [23] [%] | other results
CNCc1ccc(-c2cc(-c3nc(-c4ccc(S(=O)(=O)C(C)C)cc4)cnc3N)on2)cc1 + Cn1nnc2c(C(N)=O)ncn2c1=O | 1230 | 915 | 717 | 494 | 81.6 | 98.8 | 75.5 | 62.3 | 19 | 90 | 72.6 | 50.7 | 16.8 | 80.7 | 64.8 | 46 | 11.1 | 59.5 | 59.8 | 38 | viability, T/C [1]: 107%; viability, T/C [2]: 100%; viability, T/C [7]: 88.2%; viability, T/C [8]: 100%; viability, T/C [13]: 93.6%; viability, T/C [14]: 73.9%; viability, T/C [19]: 63.5%; viability, T/C [20]: 65.1%; viability, T/C [24]: 5.46%; viability, T/C [25]: 54.2%; viability, T/C [26]: 53%; viability, T/C [27]: 54.1%; viability, T/C [28]: 34.6%; viability, T/C [29]: 22.1%; viability, T/C [30]: 1.01%
Cn1ncnc1[C@H]1c2n[nH]c(=O)c3cc(F)cc(c23)N[C@@H]1c1ccc(F)cc1 + Cn1nnc2c(C(N)=O)ncn2c1=O | 971 | 591 | 270 | < 9.49 | < 9.49 | 75 | 72.7 | 50.5 | 16.6 | 71 | 64.1 | 40 | 15.2 | 54.6 | 50 | 33.7 | 13.6 | 34.9 | 29.6 | 17 | viability, T/C [1]: 78.4%; viability, T/C [2]: 83.7%; viability, T/C [7]: 69%; viability, T/C [8]: 74.4%; viability, T/C [13]: 81.1%; viability, T/C [14]: 88.4%; viability, T/C [19]: 44.4%; viability, T/C [20]: 35.4%; viability, T/C [24]: 18%; viability, T/C [25]: 16.3%; viability, T/C [26]: 14.4%; viability, T/C [27]: 12.2%; viability, T/C [28]: 11.3%; viability, T/C [29]: 14%; viability, T/C [30]: 14.4%
O=C(c1cc(Cc2n[nH]c(=O)c3ccccc23)ccc1F)N1CCN(C(=O)C2CC2)CC1 + Cn1nnc2c(C(N)=O)ncn2c1=O | > 30000 | 18200 | 14700 | 1200 | < 94.9 | 92.1 | 74.6 | 97.5 | 80.2 | 81.1 | 86.4 | 78.3 | 74.2 | 85.2 | 81.3 | 70.5 | 68.5 | 69 | 63.3 | 48.4 | viability, T/C (second compound 1 µM, first compound 9.49 µM): 66.5%; viability, T/C (second compound 1 µM, first compound 30 µM): 50.3%; viability, T/C (second compound 3.16 µM, first compound 9.49 µM): 52.1%; viability, T/C (second compound 3.16 µM, first compound 30 µM): 48.3%; viability, T/C (second compound 10 µM, first compound 9.49 µM): 55.6%; viability, T/C (second compound 10 µM, first compound 30 µM): 40.9%; viability, T/C [24]: 44.5%; viability, T/C (second compound 31.6 µM, first compound 9.49 µM): 35.6%; viability, T/C (second compound 31.6 µM, first compound 30 µM): 27.4%; viability, T/C [27]: 36.8%; viability, T/C [28]: 34.4%; viability, T/C [29]: 27.4%; viability, T/C [30]: 22.6%; viability, T/C (second compound 100 µM, first compound 9.49 µM): 15.1%; viability, T/C (second compound 100 µM, first compound 30 µM): 21.6%
